Reference: patent publication US10351547B2, “Somatostatin modulators and uses thereof” (priority 2016, dated 2019)
Read-outs that look alike come from different tables or passages of the source.

Target: human SSTR2 (Homo sapiens (Human), UniProt P30874)
Assay: Human SSTR2 intracellular cAMP functional assay for agonists (HTRF)
Format: cell-based
Outline: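 Cells bearing human SSTR2 exposed to compound for 20 minutes at 37 °C; after lysis, cAMP measured by time-resolved fluorescence (HTRF) and converted via a standard curve. EC50 calculated from cAMP versus compound concentration.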

[1] = CHO-K1 cells stably expressing human SSTR2, NKH477-stimulated cAMP, read-out: EC50 (inhibition of cAMP activities via human SST2R)

Chain of human SSTR2 (P30874 whole entry): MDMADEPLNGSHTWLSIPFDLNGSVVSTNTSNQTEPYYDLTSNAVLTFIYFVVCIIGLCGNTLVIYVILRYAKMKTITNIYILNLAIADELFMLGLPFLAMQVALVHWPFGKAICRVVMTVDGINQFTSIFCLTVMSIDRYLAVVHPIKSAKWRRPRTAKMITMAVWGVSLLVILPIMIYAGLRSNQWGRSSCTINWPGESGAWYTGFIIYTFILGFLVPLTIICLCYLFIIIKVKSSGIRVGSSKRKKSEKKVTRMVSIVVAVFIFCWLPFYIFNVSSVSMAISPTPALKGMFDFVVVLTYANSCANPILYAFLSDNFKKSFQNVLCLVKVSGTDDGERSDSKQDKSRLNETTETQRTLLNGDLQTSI

| Structure (SMILES) | EC50 [1] | EC50 |
| --- | --- | --- |
| COCCNc1ncc(F)cc1-c1ccc2ncc(-c3cc(C)cc(F)c3)c(N3CCC(N)CC3)c2c1 [2-234, 3-[4-(4-aminopiperidin-1-yl)-3-(3-fluoro-5-methylphenyl)quinolin-6-yl]-5-fluoro-N-(2-methoxyethyl)pyridin-2-amine] | < 10 nM |  |
| CONC(=O)Nc1c(F)cc(C#N)cc1-c1ccc2ncc(-c3cc(C)cc(F)c3)c(N3CCC(N)CC3)c2c1 [2-237, 1-{2-[4-(4-aminopiperidin-1-yl)-3-(3-fluoro-5-methylphenyl)quinolin-6-yl]-4-cyano-6-fluorophenyl}-3-methoxyurea] | < 10 nM |  |
| N#Cc1ccc(NC(=O)NOCC(F)(F)F)c(-c2ccc3ncc(-c4cc(F)cc(F)c4)c(N4CCC(N)CC4)c3c2)c1 [2-238, 1-{2-[4-(4-aminopiperidin-1-yl)-3-(3,5-difluorophenyl)quinolin-6-yl]-4-cyanophenyl}-3-(2,2,2-trifluoroethoxy)urea] | < 10 nM |  |
| CONC(=O)Nc1nc(C)ccc1-c1ccc2ncc(-c3cc(C)cc(F)c3)c(N3CCC(N)CC3)c2c1 [2-239, 1-{3-[4-(4-aminopiperidin-1-yl)-3-(3-fluoro-5-methylphenyl)quinolin-6-yl]-6-methylpyridin-2-yl}-3-methoxyurea] |  | 10 to 100 nM |
| CONC(=O)Nc1ccc(-c2ccc3ncc(-c4cc(C)cc(F)c4)c(N4CCC(N)CC4)c3c2)cc1 [2-240, 1-{4-[4-(4-aminopiperidin-1-yl)-3-(3-fluoro-5-methylphenyl)quinolin-6-yl]phenyl}-3-methoxyurea] |  | 10 to 100 nM |
| NC1CCN(c2c(-c3cc(F)cc(F)c3)cnc3ccc(-c4c(O)c(Br)cc(F)c4F)cc23)CC1 [2-241, 2-[4-(4-aminopiperidin-1-yl)-3-(3,5-difluorophenyl)quinolin-6-yl]-6-bromo-3,4-difluorophenol] | < 10 nM |  |
| COCCNc1ncc(C#N)cc1-c1ccc2ncc(-c3cc(C)cc(F)c3)c(N3CCC(N)CC3)c2c1 [2-242, 5-[4-(4-aminopiperidin-1-yl)-3-(3-fluoro-5-methylphenyl)quinolin-6-yl]-6-[(2-methoxyethyl)amino]pyridine-3-carbonitrile] | < 10 nM |  |
| Oc1ncccc1-c1ccc2ncc(-c3cc(F)cc(F)c3)c(N3CC[C@H]4NCCO[C@@H]4C3)c2c1 [2-248, 3-{4-[trans-octahydro-1H-pyrido[3,4-b]morpholin-6-yl]-3-(3,5-difluorophenyl)quinolin-6-yl}pyridin-2-ol] | < 10 nM |  |
| Cc1ccnc(-c2ccc3ncc(-c4cc(F)cc(F)c4)c(N4CCC(N)CC4)c3c2)c1N [2-250, 2-[4-(4-aminopiperidin-1-yl)-3-(3,5-difluorophenyl)quinolin-6-yl]-4-methylpyridin-3-amine] | < 10 nM |  |
| N#Cc1cncc(-c2ccc3ncc(-c4cc(F)cc(F)c4)c(N4CC[C@H]5NCCO[C@@H]5C4)c3c2)c1O [2-254, 5-{4-[trans-octahydro-1H-pyrido[3,4-b]morpholin-6-yl]-3-(3,5-difluorophenyl)quinolin-6-yl}-4-hydroxypyridine-3-carbonitrile] | 10 to 100 nM |  |
| Cc1ccnc(-c2ccc3ncc(-c4cc(F)cc(F)c4)c(N4CC[C@H]5NCCO[C@@H]5C4)c3c2)c1O [2-258, 2-{4-[trans-octahydro-1H-pyrido[3,4-b]morpholin-6-yl]-3-(3,5-difluorophenyl)quinolin-6-yl}-4-methylpyridin-3-ol] | < 10 nM |  |
| Cc1cc(F)cc(-c2cnc3ccc(-c4nccc(C#N)c4N)cc3c2N2CC(C3COCCN3)C2)c1 (stereo not shown) [2-282, 3-amino-2-[3-(3-fluoro-5-methylphenyl)-4-[3-(morpholin-3-yl)azetidin-1-yl]quinolin-6-yl]pyridine-4-carbonitrile] | < 10 nM |  |
| Cc1cc(F)cc(-c2cnc3ccc(-c4cc(F)cc(C(N)=O)c4)nc3c2N2CCC(N)CC2)c1 [3-1, 3-[8-(4-aminopiperidin-1-yl)-7-(3-fluoro-5-methylphenyl)-1,5-naphthyridin-2-yl]-5-fluorobenzamide] | < 10 nM |  |
